Data as given in US20070021509A1, “Phosphate transport inhibitors” (priority 2001, published 2007).

Columns and labels:
[1] = tested on: glucose uptake into isolated rabbit intestinal rings; assay: Ex vivo glucose uptake into isolated rabbit intestinal rings; assay type: cell-based; set-up: concentration or dose not given beside the values; conditions: Table 14
Protocol: For the ex vivo assay, ^33P uptake into isolated rabbit intestinal rings was measured using a modification of the method described by Crane and Mandelstam [Robert K. Crane and Paul Mandelstam “The active transport of sugars by various preparations of hamster intestine” Biochim. Biophys. Acta 45: 460-476, 1960; the contents of which are incorporated herein by reference]. Male New Zealand rabbits 2-3 kg in weight were aeuthinized by an i.v. injection of Fatal Pluse®. A midline laparotomy was performed and the duodenum from the pyloric junction to the ligament of Trietz isolated and excised. Segments of bowel were everted, cut into 2-4 mm ring-like pieces and placed into a modified Hepes-Buffered Ringer's solution in which Na^+ had been iso-osmotically replaced with N-methyl-D-glucamine. […] […] Tissues were then solublized by digesting them in a 5 ml volume of Solvable® tissue solubilizer overnight at 50° C. and ^33P levels determined by scintillation counting. Sodium-dependent uptake of ^33P was calculated by determining the difference in uptake between rings incubated in the presence and absence of Na^+ in the Hepes-Buffered Ringer's solution. Results are reported as the percentage inhibition of phosphate and glucose uptake, respectively.

[2] = tested on: sodium-dependent phosphate uptake into isolated rabbit intestinal rings; assay: Ex vivo 33P uptake into isolated rabbit intestinal rings; assay type: cell-based; set-up: concentration or dose not given beside the values; conditions: Table 14, 15-minute incubation
Protocol: For the ex vivo assay, ^33P uptake into isolated rabbit intestinal rings was measured using a modification of the method described by Crane and Mandelstam [Robert K. Crane and Paul Mandelstam “The active transport of sugars by various preparations of hamster intestine” Biochim. Biophys. Acta 45: 460-476, 1960; the contents of which are incorporated herein by reference]. Male New Zealand rabbits 2-3 kg in weight were aeuthinized by an i.v. injection of Fatal Pluse®. A midline laparotomy was performed and the duodenum from the pyloric junction to the ligament of Trietz isolated and excised. Segments of bowel were everted, cut into 2-4 mm ring-like pieces and placed into a modified Hepes-Buffered Ringer's solution in which Na^+ had been iso-osmotically replaced with N-methyl-D-glucamine. To measure phosphate uptake, six rings were incubated in a 50 ml conical tube containing a 10 ml volume of Ringer's solution, with or without Na^+, bubbled with 100% O2 and maintained at 37° C. 0.5 uCi/ml ^33P was then incubated with the rings for a 15-minute period, the tissue harvested, rinsed, blotted dry and weighed. Tissues were then solublized by digesting them in a 5 ml volume of Solvable® tissue solubilizer overnight at 50° C. and ^33P levels determined by scintillation counting. Sodium-dependent uptake of ^33P was calculated by determining the difference in uptake between rings incubated in the presence and absence of Na^+ in the Hepes-Buffered Ringer's solution. Results are reported as the percentage inhibition of phosphate and glucose uptake, respectively.

Compound | % Glucose Transport Inhibition [1] | % Phosphate Transport Inhibition [2]
O=C(Nc1ccc(Br)cc1)c1cccc(C(F)(F)F)c1 [Example 81, N-(4-Bromo-phenyl)-3-trifluoromethyl-benzamide] | 13% | 22%
O=C(NCc1ccccc1OC(F)(F)F)c1cc(Br)ccc1NS(=O)(=O)c1ccc(Cl)cc1 [Example 72, 5-Bromo-2-(4-chloro-benzenesulfonylamino)-N-(2-trifluoromethoxy-benzyl)-benzamide] | 6% | 24%
COc1ccccc1CNC(=O)c1cc(Br)ccc1NS(=O)(=O)c1ccc(C(F)(F)F)cc1[N+](=O)[O-] [Example 80, 5-Bromo-N-(2-methoxy-benzyl)-2-(4-trifluoromethyl-2-nitro-benzenesulfonylamino)-benzamide] | 39% | 43%
